Assays:
[1] = test system: CCRF-CEM; test: NCI60 one-dose screen (10 μM), Leukemia; type: cell-based; details: Homo sapiens, 10 μM, Leukemia, read-out: Growth percent rate
[2] = test system: HL-60(TB); test: NCI60 one-dose screen (10 μM), Leukemia; type: cell-based; details: Homo sapiens; 10 μM; HL-60(TB), Leukemia; read-out: Growth percent rate
[3] = test system: K-562; test: NCI60 one-dose screen (10 μM), Leukemia; type: cell-based; details: Homo sapiens, K562; 10 μM; K-562, Leukemia; read-out: Growth percent rate
[4] = test system: MOLT-4; test: NCI60 one-dose screen (10 μM), Leukemia; type: cell-based, human; details: Homo sapiens; 10 μM; MOLT-4, Leukemia; read-out: Growth percent rate
[5] = test system: RPMI-8226; test: NCI60 one-dose screen (10 μM), Leukemia; type: cell-based; details: Homo sapiens; 10 μM; RPMI-8226, Leukemia; read-out: Growth percent rate
[6] = test system: A549/ATCC; test: NCI60 one-dose screen (10 μM), Non-small Cell Lung Cancer; type: cell-based; details: Homo sapiens; 10 μM; A549/ATCC, Non-small Cell Lung Cancer; read-out: Growth percent rate
[7] = test system: EKVX; test: as above; type: cell-based; details: Homo sapiens, 10 μM, Non-small Cell Lung Cancer, read-out: Growth percent rate
[8] = test system: HOP-62; test: as above; type: cell-based; details: Homo sapiens; 10 μM; HOP-62, Non-small Cell Lung Cancer; read-out: Growth percent rate
[9] = test system: NCI-H23; test: as above; type: cell-based; details: Homo sapiens; 10 μM; NCI-H23, Non-small Cell Lung Cancer; read-out: Growth percent rate
[10] = test system: NCI-H322M; test: as above; type: cell-based; details: Homo sapiens, 10 μM, Non-small Cell Lung Cancer, read-out: Growth percent rate
[11] = test system: NCI-H522; test: as above; type: cell-based; details: Homo sapiens; 10 μM; NCI-H522, Non-small Cell Lung Cancer; read-out: Growth percent rate
[12] = test system: COLO 205; test: NCI60 one-dose screen (10 μM), Colon Cancer; type: cell-based, human; details: Homo sapiens; 10 μM; COLO 205, Colon Cancer; read-out: Growth percent rate
[13] = test system: HCC-2998; test: NCI60 one-dose screen (10 μM), Colon Cancer; type: cell-based; details: Homo sapiens; 10 μM; HCC-2998, Colon Cancer; read-out: Growth percent rate
[14] = test system: HCT-116; test: NCI60 one-dose screen (10 μM), Colon Cancer; type: cell-based; details: Homo sapiens; 10 μM; HCT-116, Colon Cancer; read-out: Growth percent rate
[15] = test system: HCT-15; test: NCI60 one-dose screen (10 μM), Colon Cancer; type: cell-based; details: Homo sapiens; 10 μM; HCT-15, Colon Cancer; read-out: Growth percent rate
[16] = test system: HT29; test: NCI60 one-dose screen (10 μM), Colon Cancer; type: cell-based; details: Homo sapiens, HT-29; 10 μM; HT29, Colon Cancer; read-out: Growth percent rate
[17] = test system: KM12; test: NCI60 one-dose screen (10 μM), Colon Cancer; type: cell-based, human
[18] = test system: SW-620; test: NCI60 one-dose screen (10 μM), Colon Cancer; type: cell-based; details: Homo sapiens; 10 μM; SW-620, Colon Cancer; read-out: Growth percent rate
[19] = test system: SF-268; test: NCI60 one-dose screen (10 μM), CNS Cancer; type: cell-based; details: Homo sapiens; 10 μM; SF-268, CNS Cancer; read-out: Growth percent rate
[20] = test system: SF-295; test: NCI60 one-dose screen (10 μM), CNS Cancer; type: cell-based; details: Homo sapiens; 10 μM; SF-295, CNS Cancer; read-out: Growth percent rate
[21] = test system: SF-539; test: NCI60 one-dose screen (10 μM), CNS Cancer; type: cell-based, human
[22] = test system: SNB-19; test: NCI60 one-dose screen (10 μM), CNS Cancer; type: cell-based; details: Homo sapiens; 10 μM; SNB-19, CNS Cancer; read-out: Growth percent rate
[23] = test system: LOX IMVI; test: NCI60 one-dose screen (10 μM), Melanoma; type: cell-based, human
[24] = test system: MALME-3M; test: NCI60 one-dose screen (10 μM), Melanoma; type: cell-based; details: Homo sapiens; 10 μM; MALME-3M, Melanoma; read-out: Growth percent rate
[25] = test system: M14; test: NCI60 one-dose screen (10 μM), Melanoma; type: cell-based; details: Homo sapiens; 10 μM; M14, Melanoma; read-out: Growth percent rate
[26] = test system: MDA-MB-435; test: NCI60 one-dose screen (10 μM), Melanoma; type: cell-based; details: Homo sapiens; 10 μM; MDA-MB-435, Melanoma; read-out: Growth percent rate
[27] = test system: SK-MEL-2; test: NCI60 one-dose screen (10 μM), Melanoma; type: cell-based; details: Homo sapiens; 10 μM; SK-MEL-2, Melanoma; read-out: Growth percent rate
[28] = test system: SK-MEL-28; test: NCI60 one-dose screen (10 μM), Melanoma; type: cell-based; details: Homo sapiens; 10 μM; SK-MEL-28, Melanoma; read-out: Growth percent rate
[29] = test system: SK-MEL-5; test: NCI60 one-dose screen (10 μM), Melanoma; type: cell-based, human
[30] = test system: UACC-257; test: NCI60 one-dose screen (10 μM), Melanoma; type: cell-based; details: Homo sapiens; 10 μM; UACC-257, Melanoma; read-out: Growth percent rate
[31] = test system: IGROV1; test: NCI60 one-dose screen (10 μM), Ovarian Cancer; type: cell-based; details: Homo sapiens, IGROV-1; 10 μM; IGROV1, Ovarian Cancer; read-out: Growth percent rate
[32] = test system: OVCAR-3; test: NCI60 one-dose screen (10 μM), Ovarian Cancer; type: cell-based; details: Homo sapiens; 10 μM; OVCAR-3, Ovarian Cancer; read-out: Growth percent rate
[33] = test system: OVCAR-4; test: NCI60 one-dose screen (10 μM), Ovarian Cancer; type: cell-based; details: Homo sapiens; 10 μM; OVCAR-4, Ovarian Cancer; read-out: Growth percent rate
[34] = test system: OVCAR-8; test: NCI60 one-dose screen (10 μM), Ovarian Cancer; type: cell-based; details: Homo sapiens; 10 μM; OVCAR-8, Ovarian Cancer; read-out: Growth percent rate
[35] = test system: 786–0; test: NCI60 one-dose screen (10 μM), Renal Cancer; type: cell-based; details: Homo sapiens; 10 μM; 786-0, Renal Cancer; read-out: Growth percent rate
[36] = test system: ACHN; test: NCI60 one-dose screen (10 μM), Renal Cancer; type: cell-based; details: Homo sapiens, 10 μM, Renal Cancer, read-out: Growth percent rate
[37] = test system: CAKI-1; test: NCI60 one-dose screen (10 μM), Renal Cancer; type: cell-based; details: Homo sapiens; 10 μM; CAKI-1, Renal Cancer; read-out: Growth percent rate
[38] = test system: RXF 393; test: NCI60 one-dose screen (10 μM), Renal Cancer; type: cell-based, human; details: Homo sapiens; 10 μM; RXF 393, Renal Cancer; read-out: Growth percent rate
[39] = test system: SN12C; test: NCI60 one-dose screen (10 μM), Renal Cancer; type: cell-based; details: Homo sapiens, 10 μM, Renal Cancer, read-out: Growth percent rate
[40] = test system: TK-10; test: NCI60 one-dose screen (10 μM), Renal Cancer; type: cell-based; details: Homo sapiens; 10 μM; TK-10, Renal Cancer; read-out: Growth percent rate
[41] = test system: MCF7; test: NCI60 one-dose screen (10 μM), Breast Cancer; type: cell-based; details: Homo sapiens; 10 μM; MCF7, Breast Cancer; read-out: Growth percent rate
[42] = test system: HS 578T; test: NCI60 one-dose screen (10 μM), Breast Cancer; type: cell-based; details: Homo sapiens; 10 μM; HS 578T, Breast Cancer; read-out: Growth percent rate

With `CCC12C=CCN3CCC4(c5cc(NC(=O)CN6CCN(c7ccc(C(F)(F)F)cc7)CC6)c(OC)cc5N(C)C4C(O)(C(=O)OC)C1OC(C)=O)C32` (stereo not shown) [Compound 17] the activity at 10 µM [1] was -7.07%, the activity at 10 µM [2] was 1.98% and the activity at 10 µM [3] was 11.4%. For the same compound, the activity at 10 µM [4] was 8.66%, the activity at 10 µM [5] was -14.1% and the activity at 10 µM [6] was 20.3%. It also gave an activity at 10 µM [7] of 21.3%, an activity at 10 µM [8] of -38.8% and an activity at 10 µM [9] of 15.2%. For the same compound, the activity at 10 µM [10] was 39.1%, the activity at 10 µM [11] was -24.4% and the activity at 10 µM [12] was -74.5%. It also gave an activity at 10 µM [13] of -69.9%, an activity at 10 µM [14] of 0.31% and an activity at 10 µM [15] of -56.5%. For the same compound, the activity at 10 µM [16] was -68.8%, the growth percent rate ([17]; 10 μM one-dose, KM12 colon cancer, negative = lethality) was −84.40% and the activity at 10 µM ([17]; Homo sapiens, 10 μM, KM12, Colon Cancer, read-out: Growth percent rate) was -84.4%. For the same compound, the activity at 10 µM [18] was 1.45%, the activity at 10 µM [19] was -6.14% and the activity at 10 µM [20] was -70.2%. For the same compound, the growth percent rate ([21]; 10 μM one-dose, SF-539 CNS cancer, negative = lethality) was < −80%, the activity at 10 µM ([21]; Homo sapiens, 10 μM, SF-539, CNS Cancer, read-out: Growth percent rate) was -83.4% and the activity at 10 µM [22] was 18.4%. The growth percent rate ([23]; 10 μM one-dose, LOX-IMVI melanoma, negative = lethality) was −95.37%, the activity at 10 µM ([23]; Homo sapiens, 10 μM, LOX IMVI, Melanoma, read-out: Growth percent rate) was -95.4% and the activity at 10 µM [24] was -89.5%. The activity at 10 µM [25] was -31.1%, the activity at 10 µM [26] was -79.8% and the activity at 10 µM [27] was -66.2%. It also gave an activity at 10 µM [28] of -67.6%, a growth percent rate ([29]; 10 μM one-dose, SK-MEL-5 melanoma, negative = lethality) of −98.17% and an activity at 10 µM ([29]; Homo sapiens, 10 μM, SK-MEL-5, Melanoma, read-out: Growth percent rate) of -98.2%. For the same compound, the activity at 10 µM [30] was -65.3%, the activity at 10 µM [31] was 12.7% and the activity at 10 µM [32] was -48%. The activity at 10 µM [33] was 20.4%, the activity at 10 µM [34] was 26.3% and the activity at 10 µM [35] was 24.8%. The activity at 10 µM [36] was 3.15%, the activity at 10 µM [37] was 10.8% and the activity at 10 µM [38] was -36.5%. The activity at 10 µM [39] was -17%, the activity at 10 µM [40] was 33.4% and the activity at 10 µM [41] was 0.95%. For the same compound, the activity at 10 µM [42] was -3.36%.
